Results on one compound are retold here after patent US6469013B2, “Therapeutic compounds” (Parker Hughes Institute, priority 1998, dated 2002).

Holding throughout (type): in vivo, mouse
One data set has as its system C57BL/6 recipients. As to the kind of experiment: Syngeneic islet graft function under long-term treatment. The conditions noted are these: 50 mg/kg. As to the method: Mice were fasted for 10 hours, and the glucose solution (1.5 g/kg body weight) was injected i.p. Before and after injection of glucose, blood samples were taken and blood glucose levels were measured (as described above) at 0, 30, 60 and 120 min time points.
The vehicle control—(n=3) and WHI-P131-treated C57BL/6 recipients (n=5) of islet allograft were sacrificed on day 14 post transplantation; Jak3 recipients (n=6) were sacrificed on day 100 post transplantation; the C57BL/6 recipients of syngeneic islets—vehicle control—(n=4) and WHI-P131-treated (n=5) were sacrificed on day 180 post transplantation. Kidneys bearing grafts were removed, fixed in 10% formalin and embedded in paraffin. Serial sections of graft area were cut and stained with hematoxylin and eosin. For insulin staining, sections were stained by immunoperoxidase method using 1:100 dilution of polyclonal guinea pig anti-insulin antibody (Gpx Insulin, Dako, Carpinteria, Calif.) and 1:100 dilution of secondary antibody conjugated to horse radish peroxidase (Guinea Pig Immunoglobulins HRP, Dako, Carpinteria, Calif.). Sections were briefly counterstained with hematoxylin and mounted for light microscopic examination.

For a further data set, the system named is NOD-scid/scid females. Description: Adoptive transfer of diabetes. To be noted: 50 mg/kg daily, up to week 5 post transfer. As to the method: Single-cell suspensions of splenic leucocytes pooled from 8-10 diabetic NOD females were prepared by passage through Nitex 110 mesh, and red blood cells were lysed in 10× Gey's solution. Aliquots of 1×10^7 splenocytes were adoptively transferred intravenously into 4-week-old NOD/Lt-scid/scid females (The Jackson Laboratory, Bar Harbor, Me.). […] Mice were monitored for diabetes development by testing urinary glucose every week from second week after the transfer by Chemstrip uGK strips (Boehringer Mannheim, Indianapolis, Ind.). Mice with glycosuria over 500 mg/dl (+++) on consecutive weekly tests were considered diabetic, with the first detection of chronic glycosuria taken as the date of IDDM onset.

The subject of the next data set is skh-1 mice. As to the kind of experiment: Chronic UVB-induced skin tumorigenesis. The method, then:
Female, 6-7 weeks old, hairless albino mice (skh-1) were purchased from Charles River Laboratories (Wilmington, Mass.) and were housed in a controlled environment (12-h light/12-h dark photo period, 22±1° C., 60±10% relative humidity), which is fully accredited by the USDA (United States Department of Agriculture). Animals were caged in groups of five in a pathogen free environment in accordance with the rules and regulations of U.S. Animal Welfare Act, and National Institutes of Health (NIH). All mice were housed in microisolator cages (Lab Products, Inc., N.J.) containing autoclaved bedding. The mice were allowed free access to autoclaved pellet food and tap water throughout the experiments. Animal care and the experimental procedures were carried out in agreement with institutional guidelines.
Ultraviolet lamps (8-FSX24T12/HO/UVB) that emit light predominantly in the UVB range (280-320 nm) were obtained from National Biological Corporation, Twinsburg, Ohio. The irradiance of the UVB lamps was determined before each irradiation, using a UVB meter (model—500C obtained from National Biological Corporation, Twinsburg, Ohio). For exposure to UV light, three mice were placed in an open 28 cm×10 cm plastic box that was divided in three compartments (one mouse per compartment). The plastic box was placed in the center, under the bank of UVB light, and the mice were irradiated with 35 mj/cm^2 dose of UVB. The exposure time for a 35 mj/cm ^2 dose of UVB varied from 30-34 s. The distance between UVB lamps and the surface receiving irradiation was 20 cm.
The mice were treated topically with a single application of Compound 6 (1.0 mg/cm^2, dissolved in DMSO) over a 2 cm^2 area on the dorsal surface before each UVB exposure. After 15 min. following Compound 6 application the mice were irradiated with UVB (35 mj/cm). UVB exposure of mice was performed three times a week for a total of 20 weeks. Control mice were treated with vehicle prior to UVB light exposure.
The skin thickness of mice, and papillary skin lesions greater than 1 mm in diameter were measured and recorded twice every week and the average of the two measurements was used in the calculations. Skin thickness, lesion number and lesion diameter measurements were limited only to the 2 cm^2 area on the dorsal surface of mice that was being treated either with compound 6 or vehicle. Lesion volume were calculated using the formula: […]
At the end of the study, 5-19 lesions from each group were randomly biopsied, and fixed in 10% buffered formalin. Formalin-fixed specimens were embedded in paraffin blocks, sectioned at 4 μm thickness, and stained in haematoxylin-eosin. The pathological evaluation of skin sections was performed by a Certified Veterinary Pathologist who was unaware of the identity of specimens.
The pathological classification of tumors was as follows: 1) Cutaneous papilloma: a tumor papillomatous growth of acanthotic epidermis without invasive growth of tumor cells into the dermis. […] 2) Actinic keratosis: a hyperplastic, orthokeratotic, mildly to moderately acanthotic epithelium. 3) Florid actinic keratosis: actinic keratosis with mild to moderately acanthotic ridges extending into the superficial dermis, resembling superficially invasive squamous cell carcinoma. 4) Keratoacanthoma: a papillary growth with a central keratin filled crater surrounded by hyperplastic, acanthotic stratified squamous epithelium. The leading edge of the tumor pushes into the underlying dermis. 5) Squamous cell carcinoma (SCC): a tumor with atypical cell nests invading into superficial and mid dermis.

Setting [1] is: group C, 1 mg/cm^2 topical, 20 weeks.
Where [2] appears, read: group C, 1 mg/cm^2 topical, 20 weeks, mean ± SEM.

Regarding `COc1cc2ncnc(Nc3ccc(O)cc3)c2cc1OC` [WHI-P131, 4-(4′-hydroxyl-phenyl)-amino-6,7-dimethoxyquinazoline], the “IPGTT, islet function vs controls” value with C57BL/6 recipients (day 70) is recorded as “no significant difference in islet function”. Besides, the nonfasting blood glucose in the data set with C57BL/6 recipients (day 70 of treatment) was found to be 124.6 ± 10.8 mg/dL. Further, the “IPGTT, islet function vs controls” value with C57BL/6 recipients (day 180) is reported as “not different”. The “insulin expression in syngeneic grafts vs vehicle” value in the data set on C57BL/6 recipients (day 180, immunohistochemistry) was “comparable”. Moreover, the “non-fasting blood glucose level” value in the data set with C57BL/6 recipients (day 180 post transplantation) amounted to 115.2 ± 9.2 mg/dL. In the data set on C57BL/6 recipients (entire period of 180 days), the “non-fasting blood glucose level vs vehicle control” value was “did not differ”. In the data set with NOD-scid/scid females, the “diabetic mice post adoptive transfer” value is listed as 8%. Also, in the data set with skh-1 mice (group C vs group B, 20 weeks), the “inhibition of occurrence of SCC/Florid actinic keratosis” value is on record as “about 23%”. In the data set on skh-1 mice (group C, 1 mg/cm^2 topical before each UVB 35 mj/cm^2, 20 weeks, mean ± SEM), this compound gave a No. of lesions/mouse of 1.6 ± 0.4. In addition, in the data set on skh-1 mice (setting [1]), the “Percentage of mice with Actinic keratosis” value is 53 Percentage, the “Percentage of mice with Keratoacanthomas” value is recorded as 0 Percentage, the “Percentage of mice with Papilloma” value stood at 7 Percentage and the “Percentage of mice with SCC/Florid actinic keratosis” value was 57 Percentage. For the same compound, in the data set with skh-1 mice (setting [2]), the “Avg. Vol/lesion” value amounted to 1.9 ± 0.5 and the Skin lesion volume/mouse worked out at 3.2 ± 0.9. For the same compound, the “onset of lesions (first lesion observed after)” value in the data set on skh-1 mice (weeks of UVB-irradiation, vehicle group around 10 weeks) worked out at 14 weeks.
